Measured values published in paper PMC12869404 (Virology, 2020).
Where no end group is shown, it is not given here.

system: glycan-specific, HIV-1 gp120 NAb, 2G12; test: M13 Binding ELISA, assay control NAb 2G12; settings: control NAb 2G12 coated 1 μg/well; > 2.5E+9 = no binding

| Substance | Binding Titer (M13/ml) 2G12 [M13/ml] |
| --- | --- |
| ALCLGPR (disulfide (positions not given here)) [Z13 PhD c7c-1] | > 2.5E+9 |
| DKWASFD (disulfide (positions not given here)) [2F5 PhD c7c-2] | > 2.5E+9 |
| DMRSIFHDNPFN [4E10 PhD 12–6] | > 2.5E+9 |
| ERMLFEW (disulfide (positions not given here)) [4E10 PhD c7c-2] | > 2.5E+9 |
| GPILANYSDITN [Z13 PhD 12–3] | > 2.5E+9 |
| GYWSDYWGMTTH [4E10 PhD 12–7] | > 2.5E+9 |
| HNSQNLDRWAII [2F5 PhD 12–1] | > 2.5E+9 |
| LPNWFNLSSNLM [4E10 PhD 12–11] | > 2.5E+9 |
| MELDKWA (disulfide (positions not given here)) [2F5 PhD c7c-1] | > 2.5E+9 |
| NFWELSKYLHMA [4E10 PhD 12–9] | > 2.5E+9 |
| NWFDGTTTLWHR [4E10 PhD 12–4] | > 2.5E+9 |
| NWFDRSHTLFHS [4E10 PhD 12–3] | > 2.5E+9 |
| NWFNLTQTLMPR [4E10 PhD 12–1] | > 2.5E+9 |
| PFGFELW (disulfide (positions not given here)) [Z13 PhD c7c-2] | > 2.5E+9 |
| QHWNYFDLSEQQ [Z13 PhD 12–2] | > 2.5E+9 |
| QSYNWFDHTRWI [4E10 PhD 12–8] | > 2.5E+9 |
| SEELDKWYNTLT [2F5 PhD 12–3] | > 2.5E+9 |
| SEMDDKWAKMKI [2F5 PhD 12–2] | > 2.5E+9 |
| SHTLNFLDLTST [Z13 PhD 12–1] | > 2.5E+9 |
| SIFDWPR (disulfide (positions not given here)) [4E10 PhD c7c-1] | > 2.5E+9 |
| SVSVGMKPSPRP [4E10 PhD 12–2] | > 2.5E+9 |
| TLDIFRN (disulfide (positions not given here)) [4E10 PhD c7c-3] | > 2.5E+9 |
| TNFFELTTKLHR [4E10 PhD 12–10] | > 2.5E+9 |
| YFFDRSS (disulfide) [4E10 PhD c7c-4] | > 2.5E+9 |

system: HIV-1 PSVs; test: TZMbl neutralization assay of immunized mouse sera; settings: animals immunized with mimotopes alone; TZMbl and PBMC assays, Fig. 5

| Substance | neutralizing responses of sera |
| --- | --- |
| GYWSDYWGMTTH [4E10 PhD 12–7] | detectable, low titer neutralizing responses |
| LPNWFNLSSNLM [4E10 PhD 12–11] | detectable, low titer neutralizing responses |
